# Measurements reported in patent US20040209799A1, “JAK/STAT pathway inhibitors and the uses thereof” (priority 2000, published 2004).
# Assays:
# [1] = system: IL-1α-induced aggrecanase activity in bovine chondrocytes; assay: IL-1α-induced 35S-labeled proteoglycan release (aggrecanase activity) in bovine chondrocytes; type: cell-based; details: Bos taurus, Chondrocyte, 1 ng/ml rhIL-1α, primary bovine articular chondrocytes
# Experimental: Primary bovine articular chondrocytes were isolated from the dissected articular cartilage of calf stifle joints using a thirty minute (37° C.) 1 mg/ml hyaluronidase (Boehringer Mannheim, Indianapolis, Ind.) treatment, followed by a thirty minute (37° C.) 2 mg/ml collagenase P (Boehringer Mannheim, Indianapolis, Ind.) and 2.5 mg/ml trypsin (GIBCO/BRL, Gaithersburg, Md.) treatment. Enzyme solutions were prepared in serum-free 1:1 Delbecco's modified essential medium/Ham's F-12 (DMEM/F12), and filter sterilized with a 0.22 μm Millex®-GV filter (Millipore S. A., Molsheim, France). A third, overnight digestion (0.5 mg/ml collagenase P at 37° C.) was performed in a Bellco stir flask.
# Bovine chondrocytes were recovered by addition of an equal volume of DMEM/F12 supplemented with 10% fetal bovine serum (FBS) to neutralize enzymes, filtered through a 70 μm nylon Falcon® Cell Strainer (Beckton Dickinson, Franklin Lakes, N.J.), and centrifuged at 1000×g for 10 min at room temperature. […]
# On day 28, the 0.5 ml media was removed and placed in a scintillation minivial. 4 ml of scintillation fluid was added and radioactivity in the media was quantified by scintillation counting. The cell layer was rinsed in PBS and harvested with 0.5 ml of 1× trypsin-EDTA, and quantified by scintillation counting as above. […]
# Data were determined and expressed as follows: […]
# [2] = system: chondrocytes in culture and explants of articular cartilage; details: cited from earlier work
# [3] = system: interleukin-6 (IL-6) mRNA; assay: northern blot, IL-1β-induced mRNA in human articular chondrocytes: IL-6; type: cell-based; details: 5 μM, 2 ng/ml rhIL-1β, 24 hours, free base or trifluoroacetic acid salt form
# Experimental: (§1) Frozen human articular chondrocyte cell strain HC30-0198 (described in Example 1) was thawed, and cultured in monolayer in T150 tissue culture flasks (Corning Costar, Cambridge, Mass.) as described above to 1-5 days post-confluence. Test cultures were rinsed in PBS, and preincubated for 2 hours with 10 ml of serum-free DMEM containing 5 μM DBH (synthetic), in its free base or trifluoroacetic acid salt form. An additional 10 ml of serum-free DMEM containing 5 μM DBH, 4 ng/ml recombinant human interleukin-1β (rhIL-1β; final concentration of 2 ng/ml) (R&D Systems, Minneapolis, Minn.), and 2% antibiotic solution (final concentration of 1%), were then added for 24 hours.
# (§2) Two control cultures were run in parallel: one without DBH (rhIL-1β alone), and another without DBH or rhIL-1β.
# (§3) Total RNA was fixed to the membrane using a Stratalinker® 1800 UV Crosslinker (Stratagene, La Jolla, Calif.). […]
# (§4) The blot was successively washed two times in 2×SSC/0.05% SDS (15 min/wash at room temperature), and two times in 0.1×SSC/0.1% SDS (30 minutes/wash at 65° C.). The blot was allowed to air dry, and the radioactive signal was visualized and quantified using a Fujifilm, BAS-1500 phosphorimager (Fuji, Stamford, Conn.). […]
# [4] = system: collagenase 1 (MMP1) mRNA; assay: northern blot, IL-1β-induced mRNA in human articular chondrocytes: collagenase 1; type: cell-based; details: 5 μM, 2 ng/ml rhIL-1β, 24 hours, free base or trifluoroacetic acid salt form
# Experimental: as §1, §2, §3, §4
# NF-κB (p65) mRNA = assay: northern blot, IL-1β-induced mRNA in human articular chondrocytes: NF-κB; type: cell-based; details: 5 μM, 2 ng/ml rhIL-1β, 24 hours, free base or trifluoroacetic acid salt form
# Experimental: as §1, §2, §3, §4
inhibition of IL-1β-induced upregulation of collagenase 1 (MMP1) mRNA [4],SMILES,inhibition at 5 µM [1],inhibition of IL-1 induced degradation of glycosaminoglycan and extracellular matrix [2],inhibition of IL-1β-induced upregulation of interleukin-6 (IL-6) mRNA [3],inhibition of IL-1β-induced upregulation of NF-κB (p65) mRNA (NF-κB (p65) mRNA)
–,NC1=NC(=O)C(=C2CCNC(=O)c3[nH]ccc32)N1 [DBH-2FB],100%,–,–,–
inhibit to various degrees,"NC1=NC(=O)C(=C2CCNC(=O)c3[nH]ccc32)N1 [DBH, 4-(2-amino-4-oxo-2-imidazolin-5-ylidene)-4,5,6,7-tetrahydropyrrolo(2,3-c) azepine-8-one]",–,inhibit,inhibit to various degrees,inhibit to various degrees
